From US6780976B2, “Enone reductases, methods for producing same, and methods for selectively reducing a carbon-carbon double bond of an alpha,beta-unsaturated ketone using the reductases” (Daicel Chemical Industries, Ltd., priority 2001, dated 2004) come the findings set out here.

In data set [1] the test system is enone reductase. Description: Substrate specificity of purified enone reductase. The class given is biochemical, Kluyveromyces lactis. The note with it: enzyme obtained in Example 1. On the procedure:
A reaction mixture containing 50 mM potassium phosphate buffer (pH 6.5), […], 20 mM methyl vinyl ketone, and the enzyme is reacted at 30° C., and the decrease in absorbance at 340 nm, which is associated with the decrease of the amount of NADPH, is measured. 1 U is defined as the amount of enzyme catalyzing a decrease of 1 μmol NADPH in one minute. Quantitative analysis of the polypeptide is conducted by pigment binding methods using the protein assay kit (Bio-Rad Laboratories Inc.).
The enzyme obtained in Example 1 was reacted with various enones, ketones, and aldehydes, and the dehydrogenation activity was assayed. The result was represented by a relative activity, taking the dehydrogenation activity of the enzyme on methyl vinyl ketone as 100, and the results are shown in Table 2.

In data set [2] the test system is enone reductase. Description: Activity of bacterial cell extract of E. coli HB101 (pSE-KLR1) expressing recombinant enone reductase to various substrates. The data set is classed as biochemical, Kluyveromyces lactis. The following applies: for Relative activity: methyl vinyl ketone = 100. As to the method:
(§1) A reaction mixture containing 50 mM potassium phosphate buffer (pH 6.5), 0.2 mM NADPH, 20 mM methyl vinyl ketone, and the enzyme is reacted at 30° C., and the decrease in absorbance at 340 nm, which is associated with the decrease of the amount of NADPH, is measured. 1 U is defined as the amount of enzyme catalyzing a decrease of 1 μmol NADPH in one minute. Quantitative analysis of the polypeptide is conducted by pigment binding methods using the protein assay kit (Bio-Rad Laboratories Inc.).
E. coli HB101 strain, transformed with plasmid pSE-KLR1 expressing the enone reductase, was cultured overnight in liquid LB medium containing ampicillin at 30° C. 0.1 mM IPTG was added to the culture, and then, was further cultured for 4 hours.
(§2) The bacterial cells were harvested by centrifugation, and then, were suspended in 50 mM potassium phosphate buffer (pH8.0) containing 0.02% 2-mercaptoethanol, 2mM PMSF, and 10% glycerin. The cells were treated in a closed-chamber sonicator UCD-200TM (Cosmo Bio) for 3 minutes to crush the cells. The bacterial cell lysate was centrifuged and the supernatant was recovered as bacterial cell extract. The extract was assayed for activities to various types of substrates. In addition, E. coli HB 101 strain without the plasmid was cultured overnight in LB culture medium. 0.1 mM IPTG was added to the culture, and then, was further cultured for 4 hours. The bacterial cells were crushed by the same method as above, and the extract was assayed for the activities to various types of substrates.

Data set [3] deals with E. coli HB 101 strain without the plasmid. Kind of data set: Activity of bacterial cell extract of host only (E. coli HB101 without the plasmid) to various substrates. The class given is biochemical. As to the method: as §1, §2
The nature of data set [4]: Enone reductase activity of cell-free extracts of E. coli JM109 expressing the homologues YNN4, YL60, YCZ2. The data set is classed as biochemical. The following applies: E. coli JM109 with pSE-YNN4, pSE-YL60 or pSE-YCZ2; 0.1 mM IPTG, 4 hours. On the procedure:
as §1
E. coli JM109 strains, each containing pSE-YNN4, pSE-YL60 or pSE-YCZ2, were cultured in LB culture medium containing ampicillin. The induction of the enzyme was achieved by adding 0.1 mM IPTG and culturing for 4 hours. The bacterial cells were harvested by centrifugation. Respective bacterial cells were suspended in cell lysis buffer (50 mM KPB (pH 8.0), 1 mM EDTA, 0.02% 2-ME, 2 mM PMSF, and 10% glycerol); and the cells were lysed in a sonicator. The supernatant prepared by centrifugation was used as the cell-free extract.
Each of the cell-free extract was assayed for the enone reductase activity. […] Thus, it was verified that all of the three types of homologues of the enzyme of the present invention had the requisite enone reductase activity.

Data set [5] can be described thus: Methyl vinyl ketone-reducing activity of the purified enzyme (specific activity, pH and temperature dependency). The class given is biochemical. The following applies: after Phenyl-Superose, NADPH. As to the method:
as §1
Specific activity of the purified enzyme was about 31.7 U/mg.
The methyl vinyl ketone-reducing activity of the enzyme obtained in Example 1 was tested, by altering the pH of the reaction with potassium phosphate buffer and Britton Robinson buffer. The optimal pH for the reaction was determined to be 6.5 to 7.0.
The methyl vinyl ketone-reducing activity of the enzyme obtained in Example 1 was assayed under standard reaction conditions, with the exception that only the temperatures were altered. The optimal temperature was 37 to 45° C.

[6] abbreviates: coenzyme NADPH, activity on methyl vinyl ketone taken as 100.
The mark [7] stands for this setting: coenzyme NADH, activity on methyl vinyl ketone (NADPH) taken as 100.

In the case of `CC(=O)c1ccccc1` [Acetophenone], in the data set on enone reductase [1] (setting [6]), the Relative activity came out at 0%.

On to `CC1=CC(=O)CC1` [3-methyl-2-cyclopenten-1-one], for which, in the data set with enone reductase [1] (setting [6]), the Relative activity was 0%.

Take `CCC(C)=O` [2-butanone]: the Relative activity in the data set with enone reductase [1] (setting [6]) amounted to 0%.

Turning to `CC1=CCCC1=O` [2-methyl-2-cyclopenten-1-one], in the data set with enone reductase [1] (setting [6]), the Relative activity stood at 0%.

`CC=C(C)C(C)=O` [3-methyl-3-pentene-2-one]: the Relative activity in the data set on enone reductase [1] (setting [6]) is 48%; with enone reductase [2], 32.4%. The Specific activity with enone reductase [2] worked out at 2.52 U/mg; in data set [3] it was 0.004 U/mg.

Take `CC=CC(C)=O` [3-pentene-2-one]: the Relative activity in the data set with enone reductase [1] (setting [6]) came to 16%; with enone reductase [2], 15.9%. Also, the Specific activity with enone reductase [2] was 1.23 U/mg; in data set [3], 0.015 U/mg.

In the case of `CC(=O)C=O` [Methylglyoxal], the Relative activity with enone reductase [1] (setting [6]) was determined as 1%.

For the molecule `C/C=C/C(=O)O` [Crotonic acid], the Relative activity with enone reductase [1] (setting [6]) was found to be 0%.

On to `CC(=O)C=C(C)C` [4-methyl-3-pentene-2-one], for which the Relative activity with enone reductase [1] (setting [6]) is 1%.

Take `C=CC(C)=O` [Methyl vinyl ketone]: the Relative activity with enone reductase [1] (setting [7]) amounted to 14%; in the data set with enone reductase [1] (setting [6]), 100%; in the data set on enone reductase [2], 100%. Besides, the Specific activity with enone reductase [2] worked out at 7.78 U/mg; in data set [3], 0.066 U/mg.

As for `CC(=O)C(C)=O` [2,3-butanedione], the Relative activity in the data set with enone reductase [1] (setting [6]) stood at 1%.

Consider `C=CC(=O)CC` [Ethyl vinyl ketone], for which the Relative activity with enone reductase [1] (setting [7]) was 52%; in the data set with enone reductase [1] (setting [6]) it was 537%. The Specific activity turned out to be 41.8 U/mg in the data set with enone reductase [2] and 0.073 U/mg in data set [3].

B1: YNN4: Saccharomyces cerevisiae enone reductase homologue, SEQ ID NO:4, expressed in E. coli from pSE-YNN4 (protein)
chain: MSASIPETMKAVVIENGKAVVKQDIPIPELEEGFVLIKTVAVAGNPTDWKHIDFKIGPQGALLGCDAAGQIVKLGPNVDAARFAIGDYIYGVIHGASVRFPSNGAFAEYSAISSETAYKPAREFRLCGKDKLPEGPVKSLEGAVSLPVSLTTAGMILTHSFGLDMTWKPSKAQRDQPILFWGGATAVGQMLIQLAKKLNGFSKIIVVASRKHEKLLKEYGADELFDYHDADVIEQIKKKYNNIPYLVDCVSNTETIQQVYKCAADDLDATVVQLTVLTEKDIKEEDRRQNVSIEGTLLYLIGGNDVPFGTFTLPADPEYKEAAIKFIKFINPKINDGEIHHIPVKVYKNGLDDIPQLLDDIKHGRNSGEKLVAVLK
For the molecule B1, the “Enone reductase activity of cell-free extract” value in data set [4] came out at 0.268 U/mg protein.

B2: enzyme obtained in Example 1: NADPH-dependent enone reductase purified from Kluyveromyces lactis IFO 1267; amino acid sequence SEQ ID NO:2 (protein)
chain: MSVPTTQKAVIIEGDKAVVKTDVSVPELKEGTALVKVEAVAGNPTDWKHIAYKIGPEGSILGCDIAGTVVKLGPNASTDLKVGDTGFGFVHGASQTDPKNGAFAEYARVYPPLFYKSNLTHSTADEISEGPVKNFESAASLPVSLTTAGVSLCHHLGSKMEWHPSTPQHTHPLLIWGGATAVGQQLIQVAKHINAYTKIVTVASKKHEKLLKSYGADDVFDYHDAGVIEQIKSKYPNLQHVIDAVGSEDSIPEAYKVTADSLPATLLEVVPMTIESIPEEIRKDNVKIDITLLYRASGQEILLGATRFPASPEYHEATVKFVKFINPHLNNGDIHHMNIKVFSNGLDDVPALTEGIKEGKNKNVKYVARL
In the case of B2, the “Specific activity of the purified enzyme” value in data set [5] is recorded as “about 31.7 U/mg”.

B3: YCZ2: Saccharomyces cerevisiae enone reductase homologue, SEQ ID NO:8, expressed in E. coli from pSE-YCZ2 (protein)
chain: MKAVVIEDGKAVVKEGVPIPELEEGFVLIKTLAVAGNPTDWAHIDYKVGPQGSILGCDAAGQIVKLGPAVDPKDFSIGDYIYGFIHGSSVRFPSNGAFAEYSAISTVVAYKSPNELKFLGEDVLPAGPVRSLEGAATIPVSLTTAGLVLTYNLGLNLKWEPSTPQRNGPILLWGGATAVGQSLIQLANKLNGFTKIIVVASRKHEKLLKEYGADQLFDYHDIDVVEQIKHKYNNISYLVDCVANQNTLQQVYKCAADKQDATVVELTNLTEENVKKENRRQNVTIDRTRLYSIGGHEVPFGGITFPADPEARRAATEFVKFINPKISDGQIHHIPARVYKNGLYDVPRILEDIKIGKNSGEKLVAVLN
As for B3, the “Enone reductase activity of cell-free extract” value in data set [4] turned out to be 0.133 U/mg protein.

B4: YL60: Saccharomyces cerevisiae enone reductase homologue, SEQ ID NO:6, expressed in E. coli from pSE-YL60 (protein)
chain: MAQVAIPETMKAVVIEDGKAVVKEGIPIPELEEGFVLIKTLAVAGNPTDWAHIDYKIGPQGSILGCDAAGQIVKLGPAVNPKDFSIGDYIYGFIHGSSVRFPSNGAFAEYSAISTVVAYKSPNELKFLGEDVLPAGPVRSLEGVATIPVSLTTAGLVLTYNLGLDLKWEPSTPQRKGPILLWGGATAVGQSLIQLANKLNGFTKIIVVASRKHEKLLKEYGADELFDYHDIDVVEQIKHKYNNISYLVDCVANQDTLQQVYKCAADKQDATIVELKNLTEENVKKENRRQNVTIDIIRLYSIGGHEVPFGNITLPADSEARKAAIKFIKFINPKINDGQIRHIPVRVYKNGLCDVPHILKDIKYGKNSGEKLVAVLN
For B4, the “Enone reductase activity of cell-free extract” value in data set [4] is given as 0.198 U/mg protein.
